Experimental data: PubChem BioAssay AID1626 (SRMLSC, 2009)

System: M. tuberculosis H37Rv growth inhibition
Assay: M. tuberculosis H37Rv growth inhibitors, H37Rv strain (AID 1626)
Conditions: for IC90: measured here: IC90 against H37Rv; for CC50: measured here: Vero cell cytotoxicity

Row | SMILES | IC50 | IC90 | CC50
1 | O=C(Nc1nc(-c2ccccn2)cs1)C1CC(=O)N(c2ccc3c(c2)OCCO3)C1 (stereo not given) | 17.2 µM | > 100 µM | 36.7 µM
2 | CCOc1ccc(N=Cc2c(O)n(C(C)(C)C)c(=O)[nH]c2=O)cc1 | < 0.195 µM | > 100 µM | –
3 | O=C(Nc1ncc(Cc2cccc(Cl)c2)s1)C1=NCCN1 | 6.98 µM | > 100 µM | > 40 µM
4 | CN1/C(=C\C(=O)c2cccs2)Sc2ccccc21 | 5.65 µM | 13.6 µM | > 40 µM
5 | O=C(COC(=O)c1ccc(-c2ccc([N+](=O)[O-])cc2)o1)NC(=O)NC12CC3CC(CC(C3)C1)C2 | 10.3 µM | > 100 µM | –
6 | O=C(COC(=O)/C=C/c1cccs1)Nc1ccc2ccccc2c1 | 90.8 µM | > 100 µM | –
7 | COc1ccc(C(C(=O)NC2CCCCC2)N(C(=O)c2sc(C)nc2C)c2ccc(C(C)=O)cc2)cc1 (stereo not given) | 65.5 µM | > 100 µM | –
8 | COc1ccc(NCC(=O)Nc2ccccc2C#N)cc1Cl | 97.8 µM | > 100 µM | –
9 | O=C(CSc1nnc(NC(=O)c2ccccc2Cl)s1)Nc1ccc2c(c1)oc1ccccc12 | – | – | > 40 µM
10 | CCOC(=O)CSc1nc2c(c(-c3ccc(C)o3)c1C#N)CCCC2 | 2.36 µM | 3.53 µM | –
11 | Cn1c(NC(=O)c2cccc(Cn3cc(Cl)cn3)c2)nc2ccccc21 | – | – | > 40 µM
12 | Cc1nn(-c2ccccc2)c(N)c1C(c1ccc(C(C)C)cc1)c1c(C)nn(-c2ccccc2)c1N | 8.73 µM | 13 µM | > 40 µM
13 | O=C1c2cccc3c([N+](=O)[O-])ccc(c23)C(=O)N1c1ccccn1 | 7.34 µM | 10.5 µM | 12.2 µM
14 | COC(=O)CSc1ccc(C#N)c(SCC(=O)OC)c1 | 3.27 µM | 10.4 µM | –
15 | COC(=O)CN1C(c2ccc(OC)cc2)=Nc2ccc(Cl)cc2C1c1ccccc1 (stereo not given) | 3.18 µM | 6.98 µM | –
16 | CCOc1c2c(nc3ccc(Cl)cc13)CCC2 | 5.14 µM | 21.4 µM | > 40 µM
17 | Cn1cnc([N+](=O)[O-])c1S(=O)(=O)c1ccc(Cl)cc1 | 8.35 µM | 10.7 µM | 23.4 µM
18 | Nc1nnc(SCc2ccc(F)cc2)s1 | – | > 100 µM | –
19 | Cc1[nH]n(-c2ccccc2)c(=S)c1C=NCCCN=Cc1c(C)[nH]n(-c2ccccc2)c1=S | < 0.391 µM | > 100 µM | –
20 | CC1CC(C)CN(C(=O)COC(=O)c2cc3ccccc3cc2O)C1 (stereo not given) | 0.592 µM | 4.29 µM | –
21 | CCCNC1=C(N(C(C)=O)c2cccc(F)c2)C(=O)c2ccccc2C1=O | 2.75 µM | 4.13 µM | 29.9 µM

Row | SMILES | IC50 | IC90 | CC50
22 | CNC(=O)c1c(NC(=O)c2nc3ccccc3s2)sc2c1CCC2 | – | – | > 40 µM
23 | CC(C)c1ccc(CNc2nc3nc4c(c(=O)n3[nH]2)CCC4)cc1 | 0.464 µM | > 100 µM | –
24 | COc1ccc(-c2ccc([C@H]3[C@@H]4C=CCC[C@@]4(C)C(=O)N3Cc3ccccc3)c(F)c2)cc1OC | 13 µM | > 100 µM | 39.2 µM
25 | O=C(CNCc1ccccc1)Nc1ccc(Oc2ccccc2)cc1 | 13.2 µM | > 100 µM | –
26 | CC1CC1C(=O)Nc1nc(-c2ccccn2)cs1 (stereo not given) | 2.13 µM | 4.75 µM | 25.9 µM
27 | Clc1ccc(-n2nnnc2Sc2ncnc3sccc23)cc1 | 63.4 µM | > 100 µM | 10.5 µM
28 | Cc1ccc(Cc2cnc(NC(=O)c3cccs3)s2)cc1 | 5.91 µM | 6.69 µM | > 40 µM
29 | Cc1ccc2nc(Cl)c3nnnn3c2c1 | 11.9 µM | 17 µM | > 40 µM
30 | c1ccc(-c2nc(N3CCOCC3)c3ccccc3n2)nc1 | 5.22 µM | 14.5 µM | > 40 µM
31 | COc1ccc(-c2csc(NC(C)c3nc4cc(Cl)c(N5CCCCC5)cc4n3CCOCCO)n2)cc1 (stereo not given) | 7.74 µM | > 100 µM | > 40 µM
32 | C=CCn1c(SCc2csc(-c3ccc(C)cc3)n2)nnc1-c1ccccc1OC | 16.5 µM | 23.8 µM | > 40 µM
33 | CCN1CCN(c2cc(C(C)(C)C)nc3c(-c4ccccc4)c(C)nn23)CC1 | 3.6 µM | 5.63 µM | 30.6 µM
34 | COc1c(Cl)cc(Cl)cc1/C=C/C(=O)c1ccc(NC(=O)c2cccs2)cc1 | 7.91 µM | 16.4 µM | 6.47 µM
35 | CN1Cc2c(N3CCOCC3)nc3sc(C(=O)c4ccc(Br)cc4)c(N)c3c2CC1(C)C | 5.56 µM | 6.26 µM | 10.2 µM
36 | O=C(c1coc2ccc(O)cc12)C1CC1 | 27.5 µM | > 100 µM | –
37 | COc1ccc(-c2noc(CCC(=O)Nc3ccc4c(c3)OCCO4)n2)cc1 | 30.7 µM | > 100 µM | –
38 | O=C(Nc1nnc(-c2ccco2)o1)c1ccc([N+](=O)[O-])s1 | 6.03 µM | 8.57 µM | 16.6 µM
39 | Cc1cc(C2N=C(N)Nc3nc4ccccc4n32)c(C)n1-c1ccccc1Cl (stereo not given) | 7.61 µM | 12.2 µM | –
40 | Cc1[nH]n(-c2ccc(Cl)cc2)c(=O)c1N=Nc1cccnc1 | 3.39 µM | > 100 µM | 36.1 µM
41 | COc1ccc(N=C/C=C2/C=C(c3ccccc3)OC(C)(C)O2)cc1 | 63.4 µM | > 100 µM | –
42 | COc1ccc(C(=O)C(CN2CCOCC2)c2ccccc2)cc1F (stereo not given) | 11.5 µM | 12.5 µM | 16.1 µM

Row | SMILES | IC50 | IC90 | CC50
43 | COc1ccc(N/C=C/C(=O)c2ccc(Cl)cc2)cc1 | – | – | > 40 µM
44 | O=c1[nH]c(-c2ccccn2)nc2ccccc12 | 5.87 µM | 6.72 µM | > 40 µM
45 | COc1ccc2c(c1)sc(=N)n2C | 8.91 µM | 11.7 µM | > 40 µM
46 | CCOC(=O)c1cc(COc2cc(Cl)cc(Cl)c2)on1 | 3.01 µM | 21.6 µM | –
47 | COc1ccc(-c2nnc(SCC(=O)OC3CCCCC3)o2)cc1OC | < 0.195 µM | 1.04 µM | > 40 µM
48 | CCc1nnc(NC(=O)c2cccc(C(=O)Nc3nnc(CC)s3)n2)s1 | – | 1.09 µM | 3.62 µM
49 | O=C(CCC(=O)Nc1ccc(Oc2ccccc2)cc1)NCCO | – | > 100 µM | –
50 | Cc1cccc(OCC(O)Cn2c(=N)n(CCN3CCCCC3)c3ccccc32)c1 (stereo not given) | 5.87 µM | 6.69 µM | 35.8 µM
51 | CCn1ccnc1CN(C)Cc1cn(-c2cccc(C)c2)nc1-c1cccc(F)c1 | 2.58 µM | 4.19 µM | > 40 µM
52 | CCOc1ccc(CN(C)C(=O)CCl)cc1 | 26.7 µM | > 100 µM | 12.7 µM
53 | O=[N+]([O-])c1ccc(Sc2nc3ccccc3o2)c([N+](=O)[O-])c1 | 3.69 µM | 5.16 µM | 8.69 µM
54 | Cc1ccccc1NC(=O)c1ccc(OCC(=O)Nc2ccccc2F)cc1 | 76 µM | > 100 µM | –
55 | O=C(COC(=O)c1sc2ccccc2c1Cl)NC1CCCCC1 | 12.7 µM | > 100 µM | > 40 µM
56 | CC(C)[C@H](NC(=O)c1ccccc1Cl)C(=O)Nc1nc(-c2ccccn2)cs1 | 7.72 µM | > 100 µM | 9.39 µM
57 | Cc1nc(N/C(N)=N/S(=O)(=O)c2ccc([N+](=O)[O-])cc2)nc2ccccc12 | 9.12 µM | > 100 µM | > 40 µM
58 | O=C1Nc2ccccc2/C1=C/C(=O)c1cccs1 | 4.39 µM | 26.1 µM | 33.7 µM
59 | O=C(C[n+]1cc(-c2ccc(F)cc2)n2c1CCC2)N1c2ccccc2Sc2ccccc21 | 38.7 µM | > 100 µM | –
60 | O=c1[nH]c(-c2ccccn2)nc2sc(-c3ccccc3)cc12 | < 0.391 µM | 0.553 µM | 2.2 µM
61 | CCC(=O)Nc1nc2ccccc2n1Cc1ccc(C)cc1 | 1.39 µM | 11 µM | > 40 µM
62 | COc1cccc(CC2(CO)CCCN(Cc3[nH]c4ccc(C)cc4c3C)C2)c1 (stereo not given) | 8.49 µM | 11.2 µM | > 40 µM
63 | Cc1cc(NCc2ccccn2)n2ncc(-c3ccccc3)c2n1 | 4.82 µM | 7.62 µM | 31.4 µM

Row | SMILES | IC50 | IC90 | CC50
64 | C/C(=C\C(=O)c1ccncc1)Nc1ccccc1O | < 0.195 µM | 28.2 µM | > 40 µM
65 | O=C(CSc1ccccn1)Nc1ccc2c(c1)oc1ccccc12 | < 0.195 µM | > 100 µM | –
66 | CCSc1nnc(NC(=O)c2ccc3ccccc3n2)s1 | 0.628 µM | 2.19 µM | 38.1 µM
67 | O=C(/C=C/c1ccc2c(c1)OCO2)c1c(O)n(CCc2ccccc2)c(=O)[nH]c1=O | 6.87 µM | 9.99 µM | 27.4 µM
68 | COC(=O)C1C(O)=C(C=Nc2ccc3ccccc3c2)C(=O)CC1(C)C (stereo not given) | 33.7 µM | > 100 µM | –
69 | CCOC(=O)c1ccc(NC(=O)CCSCCc2ccccn2)cc1 | 55.4 µM | > 100 µM | –
70 | O=C(Nc1cccc(NC(=O)c2cccs2)c1)c1ccc([N+](=O)[O-])o1 | 7.97 µM | 14.3 µM | 13.8 µM
71 | Cc1[nH]n2c(=O)cc(C(C)(C)C)nc2c1-c1ccccc1 | 0.407 µM | 2.91 µM | 13.1 µM
72 | CC1CCCCN1C(=O)COC(=O)/C=C/c1ccc2ccccc2n1 (stereo not given) | 0.807 µM | 5.9 µM | > 40 µM
73 | COC(=O)COc1ccc2c(=O)c(-c3ccccc3OC)coc2c1 | 3.01 µM | 5.62 µM | –
74 | Cc1cc(=O)[nH]c(SCC(=O)C23CC4CC(CC(C4)C2)C3)c1C#N | – | > 100 µM | 21.2 µM
75 | COC(=O)COc1ccc(-c2ccc(F)cc2)cc1C=O | 5.69 µM | 9.92 µM | –
76 | O=C(/C=C/c1ccccc1)C1C(=O)c2ccccc2C1=O | 23.5 µM | 26.5 µM | 32.1 µM
77 | Cc1ccc(C(=O)/C=C/C(=O)c2ccc(C)cc2)cc1 | 5.49 µM | 9.24 µM | > 40 µM
78 | Cc1cc(C)n(-c2nc(NC(C)C)nc(NC(C)C)n2)n1 | 0.961 µM | 3.94 µM | > 40 µM
79 | CCc1nnc(NC(=O)c2ccc3ccccc3n2)s1 | 12.1 µM | > 100 µM | > 40 µM
80 | COc1ccc(N2CCN(CC(=O)Nc3nc4c(s3)CC(C)CC4)CC2)cc1 (stereo not given) | 4.42 µM | 49.1 µM | –
81 | CCn1nnc(NC(=O)c2ccc(-c3ccc(Cl)cc3)o2)n1 | 19.8 µM | > 100 µM | –
82 | Oc1ccc2ccccc2c1CNc1cnc2ccccc2c1 | 1.42 µM | > 100 µM | –
